# What was measured:
# [1] = In vivo tissue uptake, tumor versus muscle; details: 10 mg/kg i.v.; transferrin 1 mg/kg
# Procedure: Transferrin was dissolved in 40% PG in phosphate buffer (pH=7.0)+100 mM NaCl (0.1 mg/100 uL) and added to the photosensitizer solution (to achieve 10 mg/kg dose). The mixture was incubated for 1 hour prior to injection, and 100 uL of the mixture was injected i.v. to each animal.
# [2] = tested on: AY27 cancer cell line; assay: In vitro PDT effect, Presto Blue cell kill; assay type: cell-based; details: 90 J cm−2, 0.4 mg/mL human transferrin, 30 minutes
# Procedure: The photosensitizer was pre-mixed with 0.4 mg/mL human transferrin and incubated for 1 hour at 37° C. In control group (no additional transferrin), equivalent volume of no-transferrin medium was added. The cells were subsequently incubated with the pre-mixes for 30 minutes (FIG. 14A) or 90 minutes (FIG. 14B). After that, the medium was replaced with a fresh one (without photosensitizer and transferrin) and the cells were irradiated. On the next day (21 hours post-irradiation), viability of the cells was measured using Presto Blue viability assay, and percent of cell kill was calculated. The PDT effect shown is a result of subtraction of “photosensitizer alone” and “light alone” cell kill from the total PDT cell kill.
# The photosensitizer was pre-mixed with 0.4 mg/mL human transferrin and incubated for 1 hour at 37° C. In control group (no additional transferrin), equivalent volume of no-transferrin medium was added. The cells were subsequently incubated with the pre-mixes for 30 minutes. After that, the medium was replaced with a fresh one (without photosensitizer and transferrin) and the cells were irradiated. On the next day (21 hours post-irradiation), viability of the cells was measured using Presto Blue viability assay, and percent of cell kill was calculated. […]
# [3] = tested on: AY27 cancer cell line; assay: In vitro dark toxicity, Presto Blue cell kill; assay type: cell-based; details: 0.4 mg/mL human transferrin, 30 minutes
# Procedure: The photosensitizer was pre-mixed with 0.4 mg/mL human transferrin and incubated for 1 hour at 37° C. In control group (no additional transferrin), equivalent volume of no-transferrin medium was added. The cells were subsequently incubated with the pre-mixes for 30 minutes (FIG. 12A) or 90 minutes (FIG. 12B). After that, the medium was replaced with a fresh one (without photosensitizer and transferrin). On the next day (21 hours post-irradiation), viability of the cells was measured using Presto Blue viability assay, and percent of cell kill was calculated.
# The photosensitizer was pre-mixed with 0.4 mg/mL human transferrin and incubated for 1 hour at 37° C. In control group (no additional transferrin), equivalent volume of no-transferrin medium was added. The cells were subsequently incubated with the pre-mixes for 30 minutes. After that, the medium was replaced with a fresh one (without photosensitizer and transferrin). On the next day (21 hours post-irradiation), viability of the cells was measured using Presto Blue viability assay, and percent of cell kill was calculated.
# [4] = tested on: AY27 cancer cell line; assay: In vitro PDT in hypoxia; assay type: cell-based; details: 635 nm, 90 J cm−2, hypoxic 0.5-0.1% O2, 0.4 mg/mL human transferrin
# Procedure: The cells were incubated for 90 minutes in premix of the photosensitizer and 0.4 mg/mL human transferrin (or without transferrin, as a control group) as described above for in vitro PDT. Dark toxicity and PDT effect of the photosensitizers on AY27 cell line under 635 nm (90 J cm−2) irradiation in the absence and presence of transferrin in normoxic (FIGS. 17A, 17B) and hypoxic (0.5-0.1% O2, FIGS. 17C, 17D) conditions. The cells were incubated with the photosensitizer and transferrin for 90 minutes. After that, the cells were irradiated and the medium was replaced with a fresh one (without photosensitizer and transferrin). On the next day (21 hours post-irradiation), viability of the cells was measured using Presto Blue viability assay, and percent of cell kill was calculated. The PDT effect shown is a result of subtraction of “photosensitizer alone” and “light alone” cell kill from the total PDT cell kill.
# The cells were incubated for 90 minutes in premix of the photosensitizer and 0.4 mg/mL human transferrin (or without transferrin, as a control group) as described above for in vitro PDT. […] On the next day (21 hours post-irradiation), viability of the cells was measured using Presto Blue viability assay, and percent of cell kill was calculated. […]
# [5] = Hydroxyl radical production, cell free (HPF indicator fluorescence); assay type: physicochemical; design: unit not given here
# Procedure: The photosensitizers were diluted in phosphate buffer (pH=7.0)+100 mM NaCl or incomplete DMEM. The irradiation was performed in 96-well plates (100 uL working volume). Generation of singlet oxygen was measured by fluorescence signal of SOG indicator, generation of hydroxyl radical by fluorescence signal of HPF indicator. The signal presented is a result of subtraction of the signal in the presence of scavengers (NaN3 for singlet oxygen and DMTU for hydroxyl radical) from the total fluorescence signal.
compound,measurement,setting,value
[Os+2].c1ccc2cc3nc4c5cccnc5c5ncccc5c4nc3cc2c1.c1ccc2nc(-c3ccc4ccccc4n3)ccc2c1.c1ccc2nc(-c3ccc4ccccc4n3)ccc2c1 [TLDOsH2dppn],"uptake of the photosensitizer into tissues, effect of transferrin",[1],increases uptake
same,"PDT effect, effect of transferrin",[2]; 530 nm,increases PDT effect
same,"PDT effect, effect of transferrin",[2]; 635 nm,increases PDT effect
same,"dark toxicity, effect of transferrin",[3],decreases dark toxicity
same,"PDT effect under hypoxic conditions, effect of transferrin",[4],ensured PDT effect
same,hydroxyl radical production,"[5]; 530 nm & 1092 J cm−2, incomplete DMEM, 0.8 mg/mL transferrin",70308
same,hydroxyl radical production,"[5]; 530 nm & 1092 J cm−2, incomplete DMEM, 1.6 mg/mL transferrin",132309
same,hydroxyl radical production,"[5]; 530 nm & 1092 J cm−2, incomplete DMEM, 3.2 mg/mL transferrin",164301
same,hydroxyl radical production,"[5]; 530 nm & 1092 J cm−2, incomplete DMEM, no transferrin",32934
same,hydroxyl radical production,"[5]; 530 nm & 1092 J cm−2, phosphate buffer, 0.8 mg/mL transferrin",41037
same,hydroxyl radical production,"[5]; 530 nm & 1092 J cm−2, phosphate buffer, 1.6 mg/mL transferrin",83034
same,hydroxyl radical production,"[5]; 530 nm & 1092 J cm−2, phosphate buffer, 3.2 mg/mL transferrin",120307
same,hydroxyl radical production,"[5]; 530 nm & 1092 J cm−2, phosphate buffer, no transferrin",25290
same,hydroxyl radical production,"[5]; 635 nm & 649 J cm−2, incomplete DMEM, 0.8 mg/mL transferrin",32531
same,hydroxyl radical production,"[5]; 635 nm & 649 J cm−2, incomplete DMEM, 1.6 mg/mL transferrin",42806
same,hydroxyl radical production,"[5]; 635 nm & 649 J cm−2, incomplete DMEM, 3.2 mg/mL transferrin",73624
same,hydroxyl radical production,"[5]; 635 nm & 649 J cm−2, incomplete DMEM, no transferrin",12093
same,hydroxyl radical production,"[5]; 635 nm & 649 J cm−2, phosphate buffer, 0.8 mg/mL transferrin",25280
same,hydroxyl radical production,"[5]; 635 nm & 649 J cm−2, phosphate buffer, 1.6 mg/mL transferrin",45372
same,hydroxyl radical production,"[5]; 635 nm & 649 J cm−2, phosphate buffer, 3.2 mg/mL transferrin",72316
same,hydroxyl radical production,"[5]; 635 nm & 649 J cm−2, phosphate buffer, no transferrin",8804
same,hydroxyl radical production,"[5]; 808 nm & 4000 J cm−2, incomplete DMEM, 0.8 mg/mL transferrin",42305
same,hydroxyl radical production,"[5]; 808 nm & 4000 J cm−2, incomplete DMEM, 1.6 mg/mL transferrin",77024
same,hydroxyl radical production,"[5]; 808 nm & 4000 J cm−2, incomplete DMEM, 3.2 mg/mL transferrin",102864
same,hydroxyl radical production,"[5]; 808 nm & 4000 J cm−2, incomplete DMEM, no transferrin",14237
same,hydroxyl radical production,"[5]; 808 nm & 4000 J cm−2, phosphate buffer, 0.8 mg/mL transferrin",13408
same,hydroxyl radical production,"[5]; 808 nm & 4000 J cm−2, phosphate buffer, 1.6 mg/mL transferrin",20392
same,hydroxyl radical production,"[5]; 808 nm & 4000 J cm−2, phosphate buffer, 3.2 mg/mL transferrin",56094
same,hydroxyl radical production,"[5]; 808 nm & 4000 J cm−2, phosphate buffer, no transferrin",8931

# Source: patent US10111936B2, “Metal-glycoprotein complexes and photodynamic therapy of immune privileged sites with same” (Theralase Technologies, Inc., priority 2015, dated 2018)
